Measurements: ChEMBL document CHEMBL3430912, “GSK Tres Cantos Anti-Kinetoplastid Screening (TCAKS) Data”

Tests used:
[1] = system: Trypanosoma brucei brucei; experiment: GSK_TCAKS: pIC50 Trypanosoma brucei viability assay using fluorescence intensity. Assay plates (1536-well) were prepared by dispensing 25nL of compound solution per well using an Echo acoustic dispenser (Labcyte).; format: functional, organism-based; details: Lister 427, 2 h
[2] = system: Trypanosoma cruzi; experiment: GSK_TCAKS: pIC50 Trypanosoma cruzi viability assay using beta-GAL activity. This assay was run at single shot at 5uM compound concentration per well. The biological reagents consisted of NIH-3T3 host cells and trypomastigotes parasitic cells; both cell types were set to a 3.3 * 10^5 cells/mL dilution in assay DMEM by means of a CASY cell counter device using a 60um capillary. 6 uL of the mixture were dispensed per well (about 1 * 10^3 host-cells and 1 * 10^3 parasites) with a Multidrop Combi dispenser. […] In all wells, the percentage of DMSO never exceeded 0.5%. Plates incubated for four days at 37C, 5% CO2. The substrate used for the assay fluorescence intensity (FLINT) readout was resorufin-beta-D-galactopiranoside (Sigma-Aldrich) at 5uM per well. It was diluted in PBS supplemented with the soft detergent Igepal (Fluka).; format: functional, organism-based, Mus musculus; details: Tulahuen, NIH3T3
[3] = system: Trypanosoma cruzi; experiment: GSK_TCAKS: pIC50 Trypanosoma cruzi Imaging: Amastigotes/Cell. […] Cells were then washed once with PBS before infection. T. cruzi trypomastigotes, collected at days 5 to 8 after infection from LLC-MK2 parasite infected cultures, were allowed to swim out for 4h at 37C from a centrifuged pellet (2,500 rpm/10 min/room temperature). Trypomastigotes were then collected and counted in a CASY Cell Counter. Trypomastigotes, in supplemented DMEM, were added to H9c2 cultures in a multiplicity of infection of 1 and incubated for 18 h. Cells were washed once with PBS before incubation of the infected H9c2 monolayer with trypsin (Life-Technologies) to detach cells from the flask. Cells were counted in a CASY Cell Counter using a 150 um capillary and their density set at 5 * 10^4 cells per mL in supplemented assay DMEM. Infected H9c2 were dispensed into 384-well poly-lysine coated assay plates at 50uL per well using a Multidrop Combi dispenser. After seeding them, the plates were incubated at 37C, 5% CO2 for 72h. Cultures were then fixed and stained by addition of 50 uL of a solution containing 8% formaldehyde and 4 uM DRAQ5 DNA dye (BioStatus, UK) per well. […] Five images were collected per well for reliable statistical analysis. Automated image analysis was performed with a script developed on Acapella High Content Imaging and Analysis Software (PerkinElmer). Output: number of amastigotes per cell as infection level measurement.; format: functional, organism-based, Rattus norvegicus; details: H9c2, 4 h
[4] = system: Leishmania donovani; experiment: (§1) GSK_TCAKS: pIC50 Leishmania donovani Imaging: Infected Macrophages. Assay plates (384-well) were prepared by adding 250nL of compound to each well. For single shot assay, the final compound concentration was 5 uM. […] Automated image analysis was performed with a script developed on Acapella High Content Imaging and Analysis Software (PerkinElmer). Output: Percent of infected macrophage cells were reported for each well.; format: functional, organism-based, Homo sapiens; details: THP-1
[5] = system: Leishmania donovani; experiment: as §1, with “Amastigotes/Macrophages.” for “Infected Macrophages.”, “Average number” for “Percent”, “amastigotes per” for “infected”, “cell” for “cells”; format: functional, organism-based, Homo sapiens; details: THP-1
[6] = system: Leishmania donovani; experiment: GSK_TCAKS: pIC50 Leishmania donovani viability assay using fluorescence intensity. Assay plates (1536-well) were prepared by adding 30nL per well of compound. For single shot assay, the final compound concentration was 5uM. […] Briefly, eGFP LdBOB axenic amastigotes were harvested, fixed and counted in a CASY cell counter (Roche-Applied Science). A final concentration of 1.5 * 10^5 cells per well were prepared in amastigote media containing 500 U/mL penicillin/streptomycin (Invitrogen) and 6uL was dispensed to each experimental well using a Multidrop Combi dispenser (Thermo Scientific). 6uL of assay media was dispensed to control columns used as reference for 100% compound response. Following incubation for 72 h at 37C, 5% CO2, 2 uL of resazurin was added to each well at a final concentration of 0.5 mM in phosphate buffered saline (PBS) with IGEPAL (Sigma-Aldrich), 0.05% (v/v).; format: functional, organism-based
[7] = system: Trypanosoma cruzi; experiment: (§2) GSK_TCAKS: pIC50 Trypanosoma cruzi Imaging: Infected Cells. […] Cells were then washed once with PBS before infection. T. cruzi trypomastigotes, collected at days 5 to 8 after infection from LLC-MK2 parasite infected cultures, were allowed to swim out for 4h at 37C from a centrifuged pellet (2,500 rpm/10 min/room temperature). Trypomastigotes were then collected and counted in a CASY Cell Counter. Trypomastigotes, in supplemented DMEM, were added to H9c2 cultures in a multiplicity of infection of 1 and incubated for 18 h. Cells were washed once with PBS before incubation of the infected H9c2 monolayer with trypsin (Life-Technologies) to detach cells from the flask. Cells were counted in a CASY Cell Counter using a 150 um capillary and their density set at 5 * 10^4 cells per mL in supplemented assay DMEM. Infected H9c2 were dispensed into 384-well poly-lysine coated assay plates at 50uL per well using a Multidrop Combi dispenser. After seeding them, the plates were incubated at 37C, 5% CO2 for 72h. Cultures were then fixed and stained by addition of 50 uL of a solution containing 8% formaldehyde and 4 uM DRAQ5 DNA dye (BioStatus, UK) per well. […] Five images were collected per well for reliable statistical analysis. Automated image analysis was performed with a script developed on Acapella High Content Imaging and Analysis Software (PerkinElmer). Output: percentage of infected cells per well as a second infection marker.; format: functional, organism-based, Rattus norvegicus; details: H9c2, 4 h
[8] = GSK_TCAKS: pIC50 HepG2 human cell line viability assay using luminiscence. […] Seeding density was checked to ensure that new mono-layers were not more than 50% confluent at the time of harvesting. Cell suspension was added to 500 mL of the same medium at a final density of 1.2 * 10^5 cells/mL. This cell suspension was dispensed (25 uL, 3000 cells per well) into 384-well clear-bottom plates using a Multidrop Combi dispenser. Prior to addition of the cell suspension, the screening compounds (250 nL) were pre-dispensed into the plates with an Echo liquid handler. Plates were incubated for 48 h at 37C, 5% CO2. After incubation, plates equilibrated at room temperature for 30 min before proceeding to develop the luminescent signal. The signal developer, CellTiter-Glo Reagent, was allowed to equilibrate at room temperature for 30 min and added to the plates (25uL per well) using a Multidrop Combi dispenser. Plates were left for 10 min at room temperature for stabilization and then read using a ViewLux.; format: toxicity, cell-based
[9] = target: Sterol 14-alpha demethylase (Trypanosoma cruzi (strain CL Brener), UniProt Q7Z1V1); experiment: GSK_TCAKS: pIC50 CYP51 from Trypanosoma cruzi.; format: functional
[10] = system: Leishmania donovani; experiment: as §1, with “THP-1 Host” for “Infected”, “THP-1 cell count” for “Percent of infected macrophage cells”; format: functional, organism-based, Homo sapiens
[11] = system: Trypanosoma cruzi; experiment: as §2, with “H2C9” for “Trypanosoma cruzi”, “H9c2 Host Cardiomyocytes.” for “Infected Cells.”, “Number” for “percentage”, “H9c2 Host Cardiomyocytes nuclei to determine drug-related cytotoxicity.” for “infected cells per well as a second infection marker.”; format: functional, organism-based, Rattus norvegicus; details: H9c2, 4 h
[12] = system: Trypanosoma brucei brucei; experiment: GSK_TCAKS: pIC50 Trypanosoma brucei viability assay using luminiscence. Assay plates (1536-well) were prepared. T. brucei cultures were harvested and counted in a CASY cell counter. A parasite suspension was prepared at a final concentration of 5 * 10^4 cells/mL in complete HMI9 medium and 6uL was dispensed to all wells containing compounds using a Multidrop Combi dispenser. 6uL of HMI9 media with 0.4% DMSO were dispensed to control columns. Plates were incubated for 24 h at 37C, 5% CO2 then tempered for 10 min at room temperature. ATP content was quantified by adding 4 uL of CellTiter-Glo Reagent (Promega) according to the manufacturer's instructions. Luminescence was measured using a ViewLux.; format: functional, organism-based; details: Lister 427, CASY

Sequence of Sterol 14-alpha demethylase (Q7Z1V1 whole entry): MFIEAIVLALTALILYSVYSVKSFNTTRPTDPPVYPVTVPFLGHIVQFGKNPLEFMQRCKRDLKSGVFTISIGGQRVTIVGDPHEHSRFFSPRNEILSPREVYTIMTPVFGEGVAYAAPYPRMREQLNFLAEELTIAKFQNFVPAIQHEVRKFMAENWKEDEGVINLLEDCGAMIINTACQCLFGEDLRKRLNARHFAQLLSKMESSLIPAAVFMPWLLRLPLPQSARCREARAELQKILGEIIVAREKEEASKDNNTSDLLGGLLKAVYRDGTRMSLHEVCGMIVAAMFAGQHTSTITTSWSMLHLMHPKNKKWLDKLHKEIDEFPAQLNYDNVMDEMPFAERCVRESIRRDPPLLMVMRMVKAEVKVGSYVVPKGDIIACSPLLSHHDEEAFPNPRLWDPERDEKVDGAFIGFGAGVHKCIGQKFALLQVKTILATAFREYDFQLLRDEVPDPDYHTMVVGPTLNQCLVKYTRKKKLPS

SMILES | IC50 [1] [µM] | IC50 [2] [µM] | IC50 [3] [µM] | IC50 [4] [µM] | IC50 [5] [µM] | IC50 [6] [µM] | IC50 [7] [µM] | IC50 at 48 h [8] [µM] | IC50 [9] [µM] | IC50 [10] [µM] | IC50 [11] [µM] | IC50 [12] [µM]
CC(C)(C)Nc1nc(-c2ccccn2)nc2ccccc12 | 6.31 | 1.26 | 1.26 | 1.58 | 1.26 | 6.31 | 2 | 20 | > 100 | 15.8 | 0.316 | 6.31
Cc1ccc(NC(=O)c2ccc([N+](=O)[O-])s2)cc1S(=O)(=O)N1CCOCC1 | 0.251 | 0.2 | 0.251 | 3.16 | 2 | 2 | 0.398 | 15.8 | 20 | 39.8 | 5.01 | 0.794
COc1ccc(C2C3CCCCC3(O)CCN2CC(=O)Nc2ccc(Cl)cc2Cl)cc1 (configuration not stated) | 7.94 | 2.82 | 0.794 | 2.51 | 0.794 | 1.58 | 1.26 | > 100 | 10 | > 50.1 | 20 | 25.1
O=C(CN1CCC2(O)CCCCC2C1c1ccc2c(c1)OCO2)Nc1ccc(Cl)cc1Cl (configuration not stated) | 12.6 | 12.6 | 3.16 | 3.16 | 1.26 | 5.01 | 5.01 | > 100 | 12.6 | > 50.1 | > 50.1 | 7.94
CC1CCCN(S(=O)(=O)c2ccc(C(=O)Nc3nc(-c4ccccn4)cs3)cc2)C1 (configuration not stated) | 0.2 | 0.398 | 0.251 | 0.251 | 0.158 | 1.58 | 0.501 | 39.8 | 2.51 | 5.01 | 3.16 | 0.398
NC(=O)c1ccsc1NC(=O)c1ccc([N+](=O)[O-])s1 | 0.2 | 0.0794 | 0.1 | 1.58 | 1.26 | 0.316 | 0.126 | > 100 | > 100 | 12.6 | > 50.1 | 1.58
COc1ccc(OC)c(NC(=O)c2ccc([N+](=O)[O-])o2)c1 | 0.0158 | 3.16 | 7.94 | 31.6 | 15.8 | 25.1 | 12.6 | 20 | 10 | 20 | 3.98 | 0.0631
COCCn1c(-c2ccc3c(c2)OCO3)cnc1NCc1ccccc1OC | 20 | 7.94 | 7.94 | 10 | 5.01 | 12.6 | 20 | 39.8 | 5.01 | 39.8 | 39.8 | 25.1
COCCn1c(-c2ccccc2)cnc1NCc1ccccc1OC | 25.1 | 14.1 | 6.31 | 6.31 | 6.31 | > 50.1 | 15.8 | 20 | 7.94 | 50.1 | > 50.1 | 15.8
O=C(Nc1nccs1)c1ccccc1Cn1cc([N+](=O)[O-])cn1 | 0.316 | > 50.1 | > 50.1 | > 50.1 | > 50.1 | > 50.1 | > 50.1 | > 100 | > 100 | > 50.1 | > 50.1 | 0.501
c1ccc(CNc2cccc3ccncc23)cc1 | 25.1 | 6.31 | 5.01 | 7.94 | 5.01 | 10 | 6.31 | > 100 | 0.1 | 50.1 | > 50.1 | > 39.8
